US9681664B2, “Macrocyclic picolinamides as fungicides” (Dow Agrosciences LLC, priority 2012, dated 2017)

Key:
Leptosphaeria nodorum = assay: Wheat glume blotch (LEPTNO) disease control; format: in vivo; conditions: Parastagonospora nodorum, 24 h, High volume application, 1 Day Protectant, read-out: LEPTNO 1 DP disease control
Experimental: Technical grades of materials were dissolved in acetone, which were then mixed with nine volumes of water containing 110 ppm Triton X-100. The fungicide solutions were applied onto wheat seedlings using an automated booth sprayer to run-off. All sprayed plants were allowed to air dry prior to further handling. All fungicides were evaluated using the aforementioned method for their activity vs. all target diseases. Wheat leaf blotch and brown rust activity were also evaluated using track spray applications, in which case the fungicides were formulated as EC formulations, containing 0.1% Trycol 5941 in the spray solutions. Wheat plants (variety Yuma) were grown from seed in a greenhouse in 50% mineral soil/50% soil-less Metro mix until the first leaf was fully emerged, with 7-10 seedlings per pot. These plants were inoculated with an aqueous spore suspension of Leptosphaeria nodorum 24 hr after fungicide treatments. After inoculation the plants were kept in 100% relative humidity (one day in a dark dew chamber followed by two days in a lighted dew chamber at 20° C.) to permit spores to germinate and infect the leaf. The plants were then transferred to a greenhouse set at 20° C. for disease to develop. Fungicide formulation, application and disease assessment followed the procedures as described in the Example A.

Row | Structure (SMILES) | pest or weed control at 100 ppm (Leptosphaeria nodorum) | melting point
1 | COc1ccnc(C(=O)N[C@H]2CCC[C@H](Oc3ccccc3)[C@@H](Oc3ccccc3)[C@H](C)OC2=O)c1OCOC(C)=O [F20] | 80 to 100% | –
2 | COc1ccnc(C(=O)N[C@H]2CCC[C@H](OCC(C)C)[C@@H](Oc3ccccc3)[C@H](C)OC2=O)c1OCOC(C)=O [F26] | 80 to 100% | –
3 | COc1ccnc(C(=O)N[C@H]2CCC[C@H](Oc3ccccc3)[C@@H](OCC(C)C)[C@H](C)OC2=O)c1OCOC(C)=O [F28] | 0 to 80% | 135 to 137 °C
4 | COc1ccnc(C(=O)N[C@H]2CCC[C@H](OCC(C)C)[C@@H](OCC(C)C)[C@H](C)OC2=O)c1OCOC(C)=O [F29] | 80 to 100% | –
5 | COc1ccnc(C(=O)N[C@H]2CCC[C@H](OCc3ccccc3)[C@@H](OCc3ccccc3)[C@H](C)OC2=O)c1OCOC(C)=O [F30] | 80 to 100% | 42 to 52 °C
6 | COc1ccnc(C(=O)N[C@H]2CCC[C@H](OCc3ccccc3)[C@@H](Oc3ccccc3)[C@H](C)OC2=O)c1OCOC(C)=O [F31] | 80 to 100% | 49 to 55 °C
7 | COc1ccnc(C(=O)N[C@H]2CCC[C@H](OCC(C)C)[C@@H](OC3CCCC3)[C@H](C)OC2=O)c1OCOC(C)=O [F39] | 80 to 100% | –
8 | CCCO[C@H]1CCC[C@H](NC(=O)c2nccc(OC)c2OC(C)=O)C(=O)O[C@@H](C)[C@@H]1Oc1ccccc1 [F141] | 80 to 100% | –
9 | C=C(C)CO[C@H]1CCC[C@H](NC(=O)c2nccc(OC)c2OCOC(C)=O)C(=O)O[C@@H](C)[C@@H]1OC [F250] | 80 to 100% | –
10 | COc1ccnc(C(=O)N[C@H]2CCC[C@H](OCC(C)C)[C@@H](OC)[C@H](C)OC2=O)c1OCOC(C)=O [F251] | 80 to 100% | –
11 | COc1ccnc(C(=O)N[C@H]2CCC[C@H](Oc3ccccc3)[C@@H](OC)[C@H](C)OC2=O)c1OCOC(C)=O [F252] | 80 to 100% | –
12 | C=C(C)CO[C@H]1CCC[C@H](NC(=O)c2nccc(OC)c2OCOC(=O)C(C)C)C(=O)O[C@@H](C)[C@@H]1OC [F253] | 80 to 100% | –
13 | COc1ccnc(C(=O)N[C@H]2CCC[C@H](OCC(C)C)[C@@H](OC)[C@H](C)OC2=O)c1OCOC(=O)C(C)C [F254] | 80 to 100% | –
14 | COc1ccnc(C(=O)N[C@H]2CCC[C@H](Oc3ccccc3)[C@@H](OC)[C@H](C)OC2=O)c1OCOC(=O)C(C)C [F255] | 80 to 100% | –
